Results taken from patent publication US9040545B2, “Heterocyclyl pyrazolopyrimidine analogues as selective JAK inhibitors” (Cellzome Limited, priority 2010, dated 2015).
pIC50: −log10 of the molar value.

Tests used:
[1] = molecular target: T1, Aurora B (Homo sapiens, UniProt Q96GD4); assay: Kinobeads assay, Aurora B; format: binding; conditions: for pIC50: lysate of pervanadate-treated Jurkat cells, read-out: Inhibition values (IC50) Aur B
T1 construct: cell lysates from Jurkat cells (ATCC TIB-152) used; endogenous in cells; host or cells: Jurkat cells (ATCC TIB-152), treated with pervanadate
T1 sequence (Q96GD4 whole entry): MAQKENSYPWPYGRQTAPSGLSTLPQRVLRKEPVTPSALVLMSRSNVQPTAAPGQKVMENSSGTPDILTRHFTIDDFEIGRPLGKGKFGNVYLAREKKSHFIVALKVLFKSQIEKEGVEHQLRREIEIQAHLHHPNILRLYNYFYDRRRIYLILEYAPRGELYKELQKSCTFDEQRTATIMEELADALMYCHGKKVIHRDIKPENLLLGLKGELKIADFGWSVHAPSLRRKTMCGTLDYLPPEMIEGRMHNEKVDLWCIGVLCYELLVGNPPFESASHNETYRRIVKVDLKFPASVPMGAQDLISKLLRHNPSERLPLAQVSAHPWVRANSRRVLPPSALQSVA

[2] = molecular target: T2, Aurora A (Homo sapiens, UniProt O14965); assay: Kinobeads assay, Aurora A; format: binding; conditions: for pIC50: lysate of pervanadate-treated Jurkat cells, read-out: Inhibition values (IC50) Aur A
T2 construct: cell lysates from Jurkat cells (ATCC TIB-152) used; endogenous in cells; host or cells: Jurkat cells (ATCC TIB-152), treated with pervanadate
T2 sequence (O14965 1-403): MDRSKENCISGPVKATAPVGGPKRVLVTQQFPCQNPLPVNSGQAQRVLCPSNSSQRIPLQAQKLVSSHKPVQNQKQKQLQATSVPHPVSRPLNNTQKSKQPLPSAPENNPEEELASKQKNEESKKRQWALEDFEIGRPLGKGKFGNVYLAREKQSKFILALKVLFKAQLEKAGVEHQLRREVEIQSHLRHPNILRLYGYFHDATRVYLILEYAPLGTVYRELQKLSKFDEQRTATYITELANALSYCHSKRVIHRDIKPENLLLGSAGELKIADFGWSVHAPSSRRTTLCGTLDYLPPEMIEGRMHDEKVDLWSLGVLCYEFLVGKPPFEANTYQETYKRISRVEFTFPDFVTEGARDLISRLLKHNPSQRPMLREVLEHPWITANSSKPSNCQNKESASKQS

Row | JAK3/AurB Fold Selectivity [1] | pIC50 [1] | JAK3/AurA Fold Selectivity [2] | pIC50 [2] | Compound
1 | 10-50 Fold | 6.00 to 7.00 | 10-50 Fold | 6.00 to 7.00 | OCCn1cc(Nc2ncc3cnn(Cc4cccc(N5CCNCC5)c4)c3n2)cn1 [Example 47, 2-(4-((1-(3-(piperazin-1-yl)benzyl)-1H-pyrazolo[3,4-d]pyrimidin-6-yl)amino)-1H-pyrazol-1-yl)ethanol]
2 | 3-10 Fold | 6.00 to 7.00 | 3-10 Fold | 6.00 to 7.00 | COC1CCN(c2cccc(Cn3ncc4cnc(Nc5cnn(C)c5)nc43)c2)CC1 [Example 77, 1-(3-(4-Methoxypiperidin-1-yl)benzyl)-N-(1-methyl-1H-pyrazol-4-yl)-1H-pyrazolo[3,4-d]pyrimidin-6-amine]
3 | 10-50 Fold | 6.00 to 7.00 | 10-50 Fold | 6.00 to 7.00 | OCCn1cc(Nc2ncc3cnn(Cc4cc(N5CCOCC5)ccc4F)c3n2)cn1 [Example 44, 2-(4-((1-(2-Fluoro-5-morpholinobenzyl)-1H-pyrazolo[3,4-d]pyrimidin-6-yl)amino)-1H-pyrazol-1-yl)ethanol]
4 | >50 Fold | 6.00 to 7.00 | >50 Fold | 6.00 to 7.00 | Cn1cc(Nc2ncc3cnn(Cc4cc(N5CCOCC5=O)cc(F)c4F)c3n2)cn1 [Example 53, 4-(3,4-Difluoro-5-((6-((1-methyl-1H-pyrazol-4-yl)amino)-1H-pyrazolo[3,4-d]pyrimidin-1-yl)methyl)phenyl)morpholin-3-one]
5 | >50 Fold | 5.00 to 6.00 | 10-50 Fold | 6.00 to 7.00 | Cn1cc(Nc2ncc3cnn(Cc4cc(F)cc(N5CCOCC5)c4)c3n2)cn1 [Example 49, 1-(3-Fluoro-5-morpholinobenzyl)-N-(1-methyl-1H-pyrazol-4-yl)-1H-pyrazolo[3,4-d]pyrimidin-6-amine]
6 | 10-50 Fold | 6.00 to 7.00 | 10-50 Fold | 6.00 to 7.00 | O=C1CNCCN1c1cccc(Cn2ncc3cnc(Nc4cnn(CCO)c4)nc32)c1F [Example 55, 1-(2-Fluoro-3-((6-((1-(2-hydroxyethyl)-1H-pyrazol-4-yl)amino)-1H-pyrazolo[3,4-d]pyrimidin-1-yl)methyl)phenyl)piperazin-2-one]
7 | 10-50 Fold | 6.00 to 7.00 | 10-50 Fold | 6.00 to 7.00 | O=C1CNCCN1c1cc(F)c(F)c(Cn2ncc3cnc(Nc4cnn(CCO)c4)nc32)c1 [Example 72, 1-(3,4-Difluoro-5-((6-((1-(2-hydroxyethyl)-1H-pyrazol-4-yl)amino)-1H-pyrazolo[3,4-d]pyrimidin-1-yl)methyl)phenyl)piperazin-2-one]
8 | >50 Fold | 5.00 to 6.00 | >50 Fold | 6.00 to 7.00 | Cn1cc(Nc2ncc3cnn(Cc4cc(F)cc(N5CCOCC5=O)c4)c3n2)cn1 [Example 52, 4-(3-Fluoro-5-((6-((1-methyl-1H-pyrazol-4-yl)amino)-1H-pyrazolo[3,4-d]pyrimidin-1-yl)methyl)phenyl)morpholin-3-one]
9 | 10-50 Fold | 6.00 to 7.00 | >50 Fold | 6.00 to 7.00 | Fc1cc(N2CCOCC2)c(F)c(Cn2ncc3cnc(Nc4cn[nH]c4)nc32)c1F [Example 81, N-(1H-Pyrazol-4-yl)-1-(2,3,6-trifluoro-5-morpholinobenzyl)-1H-pyrazolo[3,4-d]pyrimidin-6-amine]
10 | 3-10 Fold | > 7.00 | 3-10 Fold | 6.00 to 7.00 | OCCn1cc(Nc2ncc3cnn(Cc4c(F)ccc(N5CCOCC5)c4F)c3n2)cn1 [Example 82, 2-(4-((1-(2,6-Difluoro-3-morpholinobenzyl)-1H-pyrazolo[3,4-d]pyrimidin-6-yl)amino)-1H-pyrazol-1-yl)ethanol]
11 | 10-50 Fold | 6.00 to 7.00 | 3-10 Fold | > 7.00 | Cn1cc(Nc2ncc3cnn(Cc4c(F)ccc(N5CCOCC5=O)c4F)c3n2)cn1 [Example 69, 4-(2,4-Difluoro-3-((6-((1-methyl-1H-pyrazol-4-yl)amino)-1H-pyrazolo[3,4-d]pyrimidin-1-yl)methyl)phenyl)morpholin-3-one]
12 | 10-50 Fold | 6.00 to 7.00 | 10-50 Fold | 6.00 to 7.00 | O=C1COCCN1c1cc(F)c(F)c(Cn2ncc3cnc(Nc4cnn(CCO)c4)nc32)c1 [Example 59, 4-(3,4-Difluoro-5-((6-((1-(2-hydroxyethyl)-1H-pyrazol-4-yl)amino)-1H-pyrazolo[3,4-d]pyrimidin-1-yl)methyl)phenyl)morpholin-3-one]

The next lines start with the compound.

Row | Compound | JAK3/AurB Fold Selectivity [1] | pIC50 [1] | JAK3/AurA Fold Selectivity [2] | pIC50 [2]
13 | Cn1cc(Nc2ncc3cnn(Cc4cc(N5CCNCC5)cc(F)c4F)c3n2)cn1 [Example 86, 1-(2,3-Difluoro-5-(piperazin-1-yl)benzyl)-N-(1-methyl-1H-pyrazol-4-yl)-1H-pyrazolo[3,4-d]pyrimidin-6-amine] | 10-50 Fold | 6.00 to 7.00 | >50 Fold | 5.00 to 6.00
14 | O=C1CNCCN1c1cc(F)cc(Cn2ncc3cnc(Nc4cnn(CCO)c4)nc32)c1 [Example 63, 1-(3-Fluoro-5-((6-((1-(2-hydroxyethyl)-1H-pyrazol-4-yl)amino)-1H-pyrazolo[3,4-d]pyrimidin-1-yl)methyl)phenyl)piperazin-2-one] | 3-10 Fold | > 7.00 | 10-50 Fold | 6.00 to 7.00
15 | O=C1COCCN1c1cc(F)cc(Cn2ncc3cnc(Nc4cnn(CCO)c4)nc32)c1F [Example 74, 4-(2,5-Difluoro-3-((6-((1-(2-hydroxyethyl)-1H-pyrazol-4-yl)amino)-1H-pyrazolo[3,4-d]pyrimidin-1-yl)methyl)phenyl)morpholin-3-one] | 10-50 Fold | > 7.00 | 10-50 Fold | > 7.00
16 | O=C1COCCN1c1cccc(Cn2ncc3cnc(Nc4cnn(CCO)c4)nc32)c1F [Example 46, 4-(2-Fluoro-3-((6-((1-(2-hydroxyethyl)-1H-pyrazol-4-yl)amino)-1H-pyrazolo[3,4-d]pyrimidin-1-yl)methyl)phenyl)morpholin-3-one] | 10-50 Fold | 6.00 to 7.00 | 10-50 Fold | 6.00 to 7.00
17 | Cn1cc(Nc2ncc3cnn(Cc4cc(F)cc(N5CCNCC5=O)c4)c3n2)cn1 [Example 64, 1-(3-Fluoro-5-((6-((1-methyl-1H-pyrazol-4-yl)amino)-1H-pyrazolo[3,4-d]pyrimidin-1-yl)methyl)phenyl)piperazin-2-one] | 10-50 Fold | 6.00 to 7.00 | 10-50 Fold | 6.00 to 7.00
18 | OCCn1cc(Nc2ncc3cnn(Cc4cc(F)cc(N5CCOCC5)c4)c3n2)cn1 [Example 51, 2-(4-((1-(3-Fluoro-5-morpholinobenzyl)-1H-pyrazolo[3,4-d]pyrimidin-6-yl)amino)-1H-pyrazol-1-yl)ethanol] | >50 Fold | 6.00 to 7.00 | 10-50 Fold | 6.00 to 7.00
19 | Cn1cc(Nc2ncc3cnn(Cc4c(F)c(F)cc(N5CCOCC5=O)c4F)c3n2)cn1 [Example 61, 4-(2,4,5-Trifluoro-3-((6-((1-methyl-1H-pyrazol-4-yl)amino)-1H-pyrazolo[3,4-d]pyrimidin-1-yl)methyl)phenyl)morpholin-3-one] | 10-50 Fold | 6.00 to 7.00 | >50 Fold | 6.00 to 7.00
20 | c1cc(Cn2ncc3cnc(Nc4cnn(CC5CCCNC5)c4)nc32)cc(N2CCOCC2)c1 (centres unmarked) [Example 48, 1-(3-Morpholinobenzyl)-N-(1-(piperidin-3-ylmethyl)-1H-pyrazol-4-yl)-1H-pyrazolo[3,4-d]pyrimidin-6-amine] | >50 Fold | 5.00 to 6.00 | >50 Fold | 5.00 to 6.00
21 | Cn1cc(Nc2ncc3cnn(Cc4cccc(N5CCOCC5O)c4)c3n2)cn1 (centres unmarked) [Example 88, 4-(3-((6-((1-Methyl-1H-pyrazol-4-yl)amino)-1H-pyrazolo[3,4-d]pyrimidin-1-yl)methyl)phenyl)morpholin-3-ol] | >50 Fold | 5.00 to 6.00 | 10-50 Fold | 5.00 to 6.00
22 | Cn1cc(Nc2ncc3cnn(Cc4cc(N5CCNCC5=O)cc(F)c4F)c3n2)cn1 [Example 71, 1-(3,4-Difluoro-5-((6-((1-methyl-1H-pyrazol-4-yl)amino)-1H-pyrazolo[3,4-d]pyrimidin-1-yl)methyl)phenyl)piperazin-2-one] | 10-50 Fold | 6.00 to 7.00 | 10-50 Fold | 6.00 to 7.00
23 | O=C1CNCCN1c1cccc(Cn2ncc3cnc(Nc4cnn(CCO)c4)nc32)c1 [Example 57, 1-(3-((6-((1-(2-Hydroxyethyl)-1H-pyrazol-4-yl)amino)-1H-pyrazolo[3,4-d]pyrimidin-1-yl)methyl)phenyl)piperazin-2-one] | 10-50 Fold | 6.00 to 7.00 | 10-50 Fold | 6.00 to 7.00
